Test results from patent publication US8748395B2, “Cell-permeable peptide inhibitors of the JNK signal transduction pathway” (Xigen Inflammation Ltd., priority 2006, dated 2014).
“Also recorded” adds a separate entry of the source. Square brackets hold non-standard residues; d marks the D form. Peptide text beside a SMILES is read from it.

Key:
WiDr cells = experiment: Irradiation (30 Gy) induced apoptosis of WiDr cells; assay type: cell-based, human; details: 1 μM added 30 minutes before 30 Gy, analyzed 48 hours later
Description: JNK is also activated by ionizing radiation. To determine whether inventive TAT-IB(s) peptides would provide protection against radiation-induced JNK damage, “WiDr” cells were irradiated (30 Gy) in presence or absence of D-TAT, inventive L-TAT-IB1(s) or inventive D-TAT-IB1(s) peptides (1 μM added 30 minutes before irradiation). Control cells (CTRL) were not irradiated. Cells were analyzed 48 hours later by means of PI and Hoechst 3342 staining, as described above. N=3, SEM are indicated.

male ICR-CD1 mice = experiment: Neuroprotection after iv administration against focal cerebral ischaemia, transient MCAO model; assay type: in vivo
Description: Transient ischemia in adult mice. Using male ICR-CD1 mice (6 weeks old; 18-37 g; Harlan), we provoked ischemia by introducing a filament from the common carotid artery into the internal carotid and advancing it into the arterial circle, thereby occluding the middle cerebral artery. We measured regional cerebral blood flow by laser Doppler flowmetry, with a probe fixed on the skull throughout the ischemia until 10 min after reperfusion. Rectal temperature was measured and maintained at 37° C. The mice were killed 48 h after reperfusion. Serial cryostat sections 20 μm thick were traced using a computer-microscope system equipped with the Neurolucida program (MicroBrightField) and the volumes of the ischemic area and of the whole brain were calculated (blinded) with the Neuroexplorer program. XG-102 0.3=0.3 mg/kg, XG-102 1=1 mg/kg, XG-102 5=5 mg/kg
The infarct volume sizes (mm^3) after bolus iv administration of placebo and XG-102 0.3, […] 6 hours after reperfusion (30 minutes clamp) in an adult mice model were as follows.

guinea pigs = experiment: Treatment of noise trauma, hearing threshold shifts by auditory brainstem response; assay type: in vivo
Description: Changes of the hearing threshold level (dB sound pressure level) in guinea pigs following noise trauma (120 dB at 6 kHz during 30 minutes) at 8 kHz, the maximally impacted frequency, measured 20 minutes (temporary threshold shift, TTS, grey) and 15 days post noise exposure (permanent threshold shift). Guinea pigs received D-TAT-IB1(s) in a hyaluronic acid gel deposited onto the cochlear round window membrane either 30 minutes before, 30 minutes after or 4 hours after noise trauma; untreated ears served as control. TTS was measured 20 minutes post noise trauma, while PTS (black), which corresponds to permanent hearing loss, was determined after 15 days.
D-TAT-IB1(s) was applied onto the round window membrane of the cochlea of 3 groups of guinea pigs (each group with 6 animals) in 2 microliters of a gel formulation of 2.6% buffered hyaluronic acid (Hylumed, Genzyme Corp.) at a concentration of 100 μM either 30 minutes before noise trauma (120 dB at 6 kHz during 30 minutes) or 30 minutes or 4 hours thereafter. Untreated ears served as control. Hearing threshold shifts were evaluated by auditory brainstem response measurements 20 minutes after noise trauma (temporary threshold shift, TTS) and 15 days following the trauma (permanent threshold shift, PTS). […] Thus, D-TAT-IB1(s) is a very effective otoprotective compound in case of noise trauma.

βTC-3 cells = experiment: Inhibition of IL-1β induced pancreatic β-cell death by TAT-IB peptides; assay type: cell-based; details: one single addition of peptide 1 μM, IL-1β every two days, 15 days
Description: We investigated the effects of the inventive L-TAT-IB(s) peptides on the promotion of β-cell apoptosis elicited by IL-1. PTC-3 cell cultures were incubated for 30 minutes with 1 μM of inventive L-TAT-IB1(s) peptides followed by 10 ng/mL of IL-1. A second addition of peptide (1 μM) was performed 24 hours later. Apoptotic cells were counted after two days of incubation with IL-1β using propidium iodide (red stained cell are dead cells) and Hoechst 33342 (blue stained cell are cells with intact plasma membrane) nuclear staining.
Long term inhibition of IL-1 induced cells death was examined by treating βTC-3 cells as described above, except that incubation of the cells with the peptides and IL-1β was sustained for 12 days. Additional peptides (1 μM) were added each day and additional IL-1β (10 ng/mL) was added every 2 days. […] Taken together, these experiments provide evidence that inventive TAT-IB(s) peptides are biologically active molecules able to prevent the effects of JNK signaling on cell fate.
Inhibition of IL-1β induced pancreatic β-cell death by the inventive D-TAT-IB1(s) peptide was analyzed. βTC-3 cells were incubated as described above for 30 minutes with one single addition of the indicated peptides (1, μM), then IL-1 (10 ng/ml) was added.
Apoptotic cells were then counted after two days of incubation with IL-1β by use of Propidium Iodide and Hoechst 33342 nuclear staining. A minimum of 1,000 cells were counted for each experiment. Standard Error of the Means (SEM) are indicated, n=5.
Long term inhibition of IL-1P induced cell-death by the D-TAT-IB1 peptide was also analyzed. βTC-3 cells were incubated as above for 30 minutes with one single addition of the indicated peptides (1 μM), then IL-1β (10 ng/ml) was added, followed by addition of the cytokine every two days. Apoptotic cells were then counted after 15 days of incubation with IL-1 by use of propidium iodide and Hoechst 33342 nuclear staining. […] A minimum of 1.000 cells were counted for each experiment.

12-days-old rats = experiment: Neuroprotection against focal cerebral ischemia, permanent MCAO model; assay type: in vivo
Description: Focal cerebral ischemia was induced in 12-days-old rats. Pups were anesthetized in an induction chamber with 2% isoflurane and during the operation anaesthesia was maintained using a mask under 2% isoflurane. MCAO was induced by electrocoagulating a main branch of the middle cerebral artery (MCA). Rats were placed on the right side, and an oblique dermal incision was made between the ear and eye. After excision of the temporal muscle, the cranial bone was removed from the frontal suture to a level below the zygomatic arch. […] The cranial skin incision was then closed. Rat pups were then placed in an incubator maintained at 37° C. until they awoke, and were then transferred to their mother.
6 hours later an inventive chimeric D-TAT-IB1(s) peptide according to SEQ ID NO: 11 was injected intraperitoneally. 24 hours after the coagulation, the rats were anesthetized with chloral hydrate and perfused through the ascending aorta with 4% paraformaldehyde in PBS. Brains were then removed and kept for 2 hours in the same fixative solution, and placed in a gradient of 30% sucrose in PBS for about 15 hours at 4° C. Brains were frozen in isopentane (−40° C.) and stored at −20° C. Coronal cryostat sections of 50 μm were collected on glass slides. The sections were stained with cresyl violet. Each tenth section was analyzed and the total volume of the lesion was calculated using the Neuroleucida programme. In the control group A, the mean lesion volume was 21.47 mm^3. […] A significant statistic difference is observed between group A and groups C, E and F (one-tailed t-test, p=0.030, p=0.002, p=0.001 respectively).

With `CC(C)C[C@@H](NC(=O)[C@@H](Cc1ccccc1)NC(=O)[C@H]1CCCN1C(=O)[C@@H](CCC(N)=O)NC(=O)[C@H](NC(=O)[C@H]1CCCN1C(=O)[C@@H](CCCNC(=N)N)NC(=O)[C@@H](CO)NC(=O)[C@@H](CCC(N)=O)NC(=O)[C@H](N)CC(=O)O)C(C)C)C(=O)N[C@H](CC(N)=O)C(=O)N[C@H](CC(C)C)C(=O)N[C@@H](C(=O)N[C@@H](C(=O)N1CCC[C@@H]1C(=O)N[C@H](CCCNC(=N)N)C(=O)N[C@H](CCCCN)C(=O)N1CCC[C@@H]1C(=O)N[C@H](CCCNC(=N)N)C(=O)N1CCC[C@@H]1C(=O)N1CCC[C@@H]1C(=O)N[C@H](CCCNC(=N)N)C(=O)N[C@H](CCCNC(=N)N)C(=O)N[C@H](CCCNC(=N)N)C(=O)N[C@H](CCC(N)=O)C(=O)N[C@H](CCCNC(=N)N)C(=O)N[C@H](CCCNC(=N)N)C(=O)N[C@H](CCCCN)C(=O)N[C@H](CCCCN)C(=O)N[C@H](CCCNC(=N)N)C(=O)NCC(=O)O)[C@H](C)O)[C@H](C)O` [D-TAT-IB1(s)] (H-[dD][dQ][dS][dR][dP][dV][dQ][dP][dF][dL][dN][dL][dT][dT][dP][dR][dK][dP][dR][dP][dP][dR][dR][dR][dQ][dR][dR][dK][dK][dR]G-OH) the “prevention of irradiation induced apoptosis” value (WiDr cells) was “able to prevent irradiation induced apoptosis”, the “infarct volume sizes, moyenne” value (male ICR-CD1 mice; 0.3 mg/kg bolus iv 6 hours after reperfusion (30 minutes clamp), n = 5) was 16 mm^3 and the “infarct volume sizes, moyenne” value (male ICR-CD1 mice; 1 mg/kg bolus iv 6 hours after reperfusion (30 minutes clamp), n = 1) was 16 mm^3. For the same compound, the “infarct volume sizes, moyenne” value (male ICR-CD1 mice; XG102 3, bolus iv 6 hours after reperfusion (30 minutes clamp), n = 5) was 15 mm^3, the neuroprotection (male ICR-CD1 mice; i.v. administration, mice killed 48 h after reperfusion) was “provides efficient neuroprotection” and the “protection against permanent hearing loss (PTS, 15 days)” value (guinea pigs; 100 μM in hyaluronic acid gel on round window membrane, 30 minutes before, 30 minutes or 4 hours after noise trauma) was “protects substantially against permanent hearing loss; also recorded: protected against permanent hearing loss even if applied after exposure to excessive noise”. For the same compound, the “PTS in treated ears versus untreated control ears” value (guinea pigs; administration 30 minutes and 4 hours post trauma, 8 kHz) was “significantly lower”, the “long term (15 day) protection against IL-1β induced cell death” value (βTC-3 cells) was “able to confer long term (15 day) protection” and the “cerebral protection compared to saline group” value (12-days-old rats; dose of 1 mg/kg, 0.003 mg/kg and 0.0003) was “total sample was not large enough to reach a significant difference”. For the same compound, the cerebral protection (12-days-old rats; dose of 11 mg/kg, 3 mg/kg, 0.3 mg/kg and 0.03 mg/kg i.p.) was “contributes to a cerebral protection”, the “dose at which the best protection is observed” value (12-days-old rats; i.p. 6 hours after MCAO) was 0.03 mg/kg and the “mean lesion volume versus control group” value (12-days-old rats; i.p. 6 hours after MCAO, analysis at 24 hours, all treated groups) was “lower mean than the control group”.
